Measured values from publication PMC10926604, “Discovery of a novel small molecule as CD47/SIRPα and PD-1/PD-L1 dual inhibitor for cancer immunotherapy” (Cell Communication and Signaling : CCS, 2024).
Entries after “also recorded” stand apart in the source; their conditions may differ.

Tests used:
MC38 tumor-bearing mice = assay: Ex vivo flow cytometry of immune cells from MC38 tumor-bearing mice; type: in vivo, mouse; settings: SMC18 treatment vs NS
Description: At the end of treatment, the tumor-bearing mice were euthanized, and the tumor tissues were removed, minced and enzymatically digested with DNAase I (DN25, Sigma) and collagenase IV (17,104–019, Invitrogen) at 37 °C for 40 min. The digested tumor suspensions were filtered by nylon filter. Immune cell infiltration in the tumor tissue was analyzed by flow cytometry. For the detection of CD8^+ T cells at the tumor site, single-cell suspensions were stained with anti-mouse CD45-FITC (30-F11, eBioscience), anti-mouse CD3-PerCP-eFluor710 (17A2, eBioscience), anti-mouse CD8α-PE (53–6.7, eBioscience) or isotype control. To detect macrophage infiltration at tumor sites, single cell suspensions were stained with anti-mouse CD45-FITC (30-F11, eBioscience), anti-mouse CD11b-eFluor450 (M1/70, eBioscience), anti-mouse F4/80-PerCP-Cyanine5.5 (BM8, eBioscience), anti-mouse CD11c-APC (M418, eBioscience), anti-mouse CD206-PE (MR6F3, eBioscience) or isotype control.
To assess cytokine secretion from tumor sites and immune organs, spleens, draining lymph nodes and tumors from mice were dissected and ground into single cell suspensions, followed by filtration and incubation with […] transport inhibitors, PMA (20 ng/mL, 16561–29-8, Sigma) and ionomycin (1 µM, I0634, Sigma) for 4 h in a 37 °C incubator. The single cell suspensions of draining lymph nodes and spleens were stained with anti-mouse CD3-PerCP-eFluor710 (17A2, eBioscience), anti-mouse CD8α-PE (53–6.7, eBioscience), anti-mouse IFN-γ-APC (XMG1.2, eBioscience) or isotype control. Tumor cells were stained with anti-mouse CD45-FITC (30-F11, eBioscience), anti-mouse CD3-PerCP-eFluor710 (17A2, eBioscience), anti-mouse CD8α-PE (53–6.7, eBioscience), anti-mouse IFN-γ-APC (XMG1.2, eBioscience) or isotype control. Finally, the samples were detected by flow cytometry.

B16-OVA cells = assay: MTT assay, B16-OVA cells; type: cell-based, mouse; settings: 100 µM; 24 h, 48 h, 72 h
Description: MC38 and B16-OVA cells were seeded into 96-well plates at a density of 3,000 cells per well, respectively and allowed to adhere overnight. SMC18 was added to the cells and incubated for 24 h, 48 h and 72 h, respectively. Cell viability was measured by adding MTT (3-(4, 5-dimethyl-2-thiazolyl)-2,5-diphenyl-2-H-tetrazolium bromide, 298–93-1, Sigma) solution and incubating for 4 h. The cells were then lysed by shaking with DMSO. The absorbance values at 490 nm were measured using a multi-mode microplate reader (Molecular Devices, SpectraMax iD5).
Fig S3. The Effect of SMC18 on Tumor Cell Proliferation in vitro. MC38 cells (3000 cells/well) and B16-OVA cells (3000 cells/well) were seeded in flat-bottomed 96-well plates and allowed to adhere overnight. Subsequently, the cells were starved for 8 hours in serum-free medium. SMC18 was diluted in complete culture medium and added to the wells, following which the cells were incubated for 24 h, 48 h, and 72 h. After the designated incubation periods, 20 μL of MTT solution was added to each well. Four hours later, the supernatant was aspirated, and 150 μL of DMSO was added to each well to dissolve the MTT formazan product. The plates were then shaken for 10 minutes, and absorbance was measured at 490 nm using a microplate reader.

[1] = system: GFP+ MC38 cells phagocytosed by BMDMs; assay: Phagocytosis assay, BMDMs with GFP+ MC38 cells; type: cell-based, mouse; settings: 50 μM
Description: Bone marrow-derived macrophage cells (BMDMs) from C57BL/6N mice were isolated and induced with 20 ng/mL of mouse granulocyte–macrophage colony-stimulating factor (GM-CSF, 315–03, Peprotech) for 7 days, with regular medium changes and cytokine replenishment during cell induction. The cells were then harvested for subsequent experiments. Subsequently, the cells were treated with SMC18 at a concentration of 50 μΜ. The anti-CD47 antibody (clone miap301, 16–0471-81, Invitrogen) was employed as a positive control with 20 µg/mL. Phagocytosis was measured by the co-culture of macrophages with green fluorescent protein (GFP^+) tumor cells (GFP^+ MC38 and GFP^+ B16-OVA cells) at a ratio of 1:4 in serum-free medium at 37 °C for 4 h. The cells were harvested and identified by flow cytometry using anti-F4/80 antibody (BM8, 17–4801-82, eBioscience). The phagocytosis rate was calculated as the percentage F4/80^+GFP^+ cells relative to the total number of total F4/80^+ cells. For confocal microscopy detection, BMDMs were labelled with DiR dye (R-22070, Beyotime) at a final concentration of 200 μM, followed by a 30-min staining period. After washing with PBS three times, the cells were cultured with DMEM medium devoid of serum for 2 h. Subsequently, MC38-EGFP cells were seeded onto BMDMs at a density of 4 × 10^6 cells per well. […]

murine PD-1/PD-L1 = molecular target: T1, murine PD-1/PD-L1 (Mus musculus, UniProt Q9EP73); assay: Cell-based blocking assay, murine PD-1/PD-L1; settings: CHO-K1-mPD-1 cells, PD-L1-Fc, flow cytometry; read-out: IC50 for blocking murine PD-1/PD-L1 interaction
T1 construct: purchased Sino Biological 50,010-M02H; host or cells: CHO-K1-mPD-1 cells carry the partner (lentiviral transfection)
Description: The CHO-K1 cell line with stable expression of CD47 and PD-1 was constructed previously by our group. SMC18 was serially diluted using PBS 7.2 (containing 1% DMSO) and incubated with 100 ng of SIRPα-Fc protein (human: SIA-H5251, mouse: SIA-M5258, ACRO Biosystems) and 50 ng of PD-L1-Fc protein (human: 10,084-H02H, mouse: 50,010-M02H, Sino Biological) on ice for 30 min. The mixture was then added to the corresponding CHO-K1-CD47 or CHO-K1-PD-1 cells and further incubated on ice for 30 min. Afterward, PE-conjugated anti-human IgG (Fc) antibody (A18272, eBioscience) was added. The mean fluorescence intensity (MFI) of the cells was detected using flow cytometry (BD FACSCalibur) and the blocking efficiency was calculated.

hCD112R/hCD112 = hCD112R/hCD112 (Homo sapiens, UniProt Q6DKI7+Q92692); assay: Blockade of other immune checkpoint pathways, CD112R/CD112; type: cell-based; settings: Fig. S2
Chain of hCD112R/hCD112 (Q6DKI7 whole entry): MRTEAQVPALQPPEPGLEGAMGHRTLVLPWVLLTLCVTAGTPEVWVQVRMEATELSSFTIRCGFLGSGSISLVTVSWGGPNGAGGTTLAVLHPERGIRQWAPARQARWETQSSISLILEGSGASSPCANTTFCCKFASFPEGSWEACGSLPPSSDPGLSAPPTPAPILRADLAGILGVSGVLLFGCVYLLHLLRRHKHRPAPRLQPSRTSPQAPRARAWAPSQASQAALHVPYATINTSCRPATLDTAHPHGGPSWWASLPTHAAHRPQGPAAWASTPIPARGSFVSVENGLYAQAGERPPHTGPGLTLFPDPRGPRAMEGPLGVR
Chain of hCD112R/hCD112 (Q92692 32-538): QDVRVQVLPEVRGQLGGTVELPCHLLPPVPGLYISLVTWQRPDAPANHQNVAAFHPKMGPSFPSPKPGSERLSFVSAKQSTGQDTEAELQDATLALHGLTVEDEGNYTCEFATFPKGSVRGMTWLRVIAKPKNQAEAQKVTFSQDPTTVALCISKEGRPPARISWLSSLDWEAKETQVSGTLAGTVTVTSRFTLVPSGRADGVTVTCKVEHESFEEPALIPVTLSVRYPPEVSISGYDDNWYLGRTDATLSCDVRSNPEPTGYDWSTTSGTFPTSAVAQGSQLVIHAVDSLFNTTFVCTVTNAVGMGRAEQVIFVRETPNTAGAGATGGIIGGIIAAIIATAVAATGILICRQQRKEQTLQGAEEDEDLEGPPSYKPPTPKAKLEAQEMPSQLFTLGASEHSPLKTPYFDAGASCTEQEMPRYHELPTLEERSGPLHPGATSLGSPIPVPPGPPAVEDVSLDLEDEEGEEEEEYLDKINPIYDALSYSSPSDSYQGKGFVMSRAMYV

T1 sequence (Q9EP73 19-238 limits assumed): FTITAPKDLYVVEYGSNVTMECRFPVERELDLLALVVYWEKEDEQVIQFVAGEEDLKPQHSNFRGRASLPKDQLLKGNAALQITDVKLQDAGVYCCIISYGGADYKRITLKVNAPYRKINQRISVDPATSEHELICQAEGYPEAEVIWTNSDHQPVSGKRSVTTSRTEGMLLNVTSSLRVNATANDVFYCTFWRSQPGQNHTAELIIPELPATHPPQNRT

## Cc1cc(C)cc(NS(=O)(=O)c2ccc3[nH]cc(C(=O)NCCc4ccccc4)c(=O)c3c2)c1 [SMC18]
MC38 tumor-bearing mice; MC38 tumor
  amount of CD8+ T cell secreting IFN-γ in the tumor tissue: significantly increased
  infiltration of CD8+ T cells in the tumor tissue: significantly increased
MC38 tumor-bearing mice
  amount of CD8+ T secreting IFN-γ in the draining lymph nodes: increased
  amount of CD8+ T secreting IFN-γ in the spleen: increased
  proportion of M1-type macrophages in tumor: increased
B16-OVA cells
  toxicity towards B16-OVA cells (MTT): only mild toxicity
[1]; 4 h
  phagocytosis of MC38 by BMDMs (flow cytometry): significantly increased
[1]; DiR-labelled BMDMs, MC38-EGFP, vs control group
  macrophage phagocytosis of MC38 cells (confocal): significantly enhanced
Murine PD-1/PD-L1
  IC50: 71.3 ± 20 µM
hCD112R/hCD112
  inhibitory effect on hCD112R/hCD112 pathway: no blocking effect; also recorded: did not impede
